Assay results published in patent publication US20250195521A1 (Revolution Medicines, Inc., priority 2020, published 2025).
pEC50, pIC50: −log10 of the molar value. Where “and” joins values, the source holds several entries; their conditions need not be identical. Equal values may be shown once. Read-outs that look alike come from different tables or passages of the source.

Tests used:
NCI-H358 (K-Ras G12C) = test: CellTiter-Glo cell viability assay, NCI-H358; type: cell-based, human; details: Homo sapiens, NCI-H358, 120 h; for pIC50: 5-day treatment, read-out: H358 Cell Viability assay data (K-Ras G12C, IC50)
Method in brief: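 After direct compound addition, plates were incubated to day 5 and equilibrated at room temperature for about 30 minutes before CellTiter-Glo reading. Values derive from luminescence relative to the DMSO mean, fitted with a four-parameter logistic model.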

[1] = target: K-Ras G12C(GMP-PNP) binding to BRAF RBD (Homo sapiens (Human), UniProt P01116+P62937, G12C); test: Disruption of BRAF RBD interaction with K-Ras (FRET / MOA assay), K-Ras G12C; type: biochemical
Excerpt: Note—The following protocol describes a procedure for monitoring disruption of K-Ras G12C(GMP-PNP) binding to BRAF^RBD by a compound of the invention. This protocol may also be executed substituting other Ras proteins or nucleotides.
The purpose of this biochemical assay was to measure the ability of test compounds to facilitate ternary complex formation between a nucleotide-loaded K-Ras isoform and Cyclophilin A; the resulting ternary complex disrupts binding to a BRAF^RBD construct, inhibiting K-Ras signaling through a RAF effector. Data is reported as IC50 values.
Compound was present in plate wells as a 10-point 3-fold dilution series starting at a final concentration of 30 μM. After incubation at 25° C. for 3 hours, a mixture of Anti-His Eu—W1024 and anti-GST allophycocyanin was then added to assay sample wells at final concentrations of 10 nM and 50 nM, respectively, and the reaction incubated for an additional 1.5 hours. […] Compounds that facilitate disruption of a K-Ras: RAF complex were identified as those eliciting a decrease in the TR-FRET ratio relative to DMSO control wells.

[2] = system: K-Ras G12C (NCI-H358 cells); test: Potency assay: pERK in NCI-H358 cells; type: cell-based, human; details: read-out: pERK EC50 (H358 KRAS G12C)
Method in brief: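 Cells plated the day before were exposed for 4 h at 37° C, 5% CO2 to a 10-point, 3-fold DMSO dilution series (10 mM top stock), in duplicate. Phospho-ERK was read by AlphaLISA SureFire Ultra or by In-Cell Western with DRAQ5 DNA stain, and IC50 came from a 4-parameter sigmoidal fit.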

[3] = system: Capan-1 cells (K-Ras G12V); test: CellTiter-Glo cell viability, Capan-1; type: cell-based, human; details: Homo sapiens, CAPAN-1, 120 h, K-Ras G12V, 5-day treatment; read-out: Capan-1 Cell Viability IC50
Method in brief: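 Endpoint: CellTiter-Glo luminescence on day 5, following ~30 min at room temperature. Data as (sample/mean DMSO)×100, four-parameter logistic fit.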

KRAS G12D = KRAS G12D (Homo sapiens (Human), UniProt P01116+P62937, G12D); test: Ras-Raf disruption/FRET/MOA assay (BRAF RBD, Cyclophilin A); type: biochemical; details: read-out: KRAS G12D FRET IC50
Method in brief: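 His6-K-Ras-GMPPNP (12.5 nM), GST-BRAF RBD (50 nM) and tagless Cyclophilin A (25 μM) were combined in 25 mM HEPES pH 7.3 with 100 mM NaCl, 5 mM MgCl2, 0.1% BSA and 0.002% Tween20, with compound as a 10-point 3-fold series from 30 μM final, then incubated 3 h at 25° C.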

[4] = Homo sapiens, NCI-H358 cells, 4 hours

K-Ras G12C(GMP-PNP) binding to BRAF RBD, sequence (P01116 other isoform, or with tags, fused parts or gaps G12C): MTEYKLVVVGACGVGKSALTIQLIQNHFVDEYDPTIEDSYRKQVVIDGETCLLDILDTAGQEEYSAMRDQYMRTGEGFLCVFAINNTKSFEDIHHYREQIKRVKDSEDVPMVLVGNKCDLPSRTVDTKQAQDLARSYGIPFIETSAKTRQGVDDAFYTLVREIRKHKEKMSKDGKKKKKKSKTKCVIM
K-Ras G12C(GMP-PNP) binding to BRAF RBD, sequence (P62937 whole entry): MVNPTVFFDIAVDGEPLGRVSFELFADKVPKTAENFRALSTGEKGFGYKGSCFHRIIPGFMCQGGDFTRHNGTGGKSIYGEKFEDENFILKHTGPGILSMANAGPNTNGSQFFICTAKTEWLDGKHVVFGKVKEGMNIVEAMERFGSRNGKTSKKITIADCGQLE
KRAS G12D, sequence (P01116 other isoform, or with tags, fused parts or gaps G12D): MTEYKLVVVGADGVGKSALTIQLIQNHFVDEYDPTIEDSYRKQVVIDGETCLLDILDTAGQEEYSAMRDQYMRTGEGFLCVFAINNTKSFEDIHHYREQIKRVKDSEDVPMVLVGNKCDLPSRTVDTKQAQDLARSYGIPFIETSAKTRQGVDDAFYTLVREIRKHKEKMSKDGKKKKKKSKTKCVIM
KRAS G12D, sequence (P62937 whole entry): as the sequence (P62937 whole entry) above

Row | Structure (SMILES) | pIC50 (NCI-H358 (K-Ras G12C)) | pIC50 ([1]; read-out: KRAS G12C FRET IC50) | other results
1 | CCn1c(-c2cccnc2[C@H](C)OC)c2c3cc(ccc31)-c1csc(n1)C[C@H](NC(=O)[C@H](C(C)C)N(C)C(=O)N1CC([C@@H](C)CO)C1)C(=O)N1CCC[C@H](N1)C(=O)OCC(C)(C)C2 (single isomer, unassigned) [Compound A487] | 7.00 to 8.00 | 6.00 to 7.00 | –
2 | CCn1c(-c2cccnc2[C@H](C)OC)c2c3cc(ccc31)-c1cc(O)cc(c1)C[C@H](NC(=O)[C@H](C(C)C)N(C)C(=O)[C@H]1CCN(C)C1)C(=O)N1CCC[C@H](N1)C(=O)OCC(C)(C)C2 [Compound A100] | – | 5.00 to 6.00 | –
3 | CCn1c(-c2cccnc2[C@H](C)OC)c2c3cc(ccc31)-c1csc(n1)C[C@H](NC(=O)[C@H](C(C)C)N(C)C(=O)[C@H]1CCN(C(=O)CN)C1)C(=O)N1CCC[C@H](N1)C(=O)OCC(C)(C)C2 [Compound A106] | – | 5.00 to 6.00 | –
4 | CCn1c(-c2cccnc2[C@H](C)OC)c2c3cc(ccc31)-c1cccc(c1)C[C@H](NC(=O)[C@H](C(C)C)N(C)C(=O)[C@H]1CCN(C(=O)C(C)(C)N(C)C)C1)C(=O)N1CCC[C@H](N1)C(=O)OCC(C)(C)C2 [Compound A112] | – | 6.00 to 7.00 and > 8.00 | pEC50 [2, 4]: > 5.30
5 | CCn1c(-c2cccnc2[C@H](C)OC)c2c3cc(ccc31)-c1cc(O)cc(c1)C[C@H](NC(=O)[C@H](C(C)C)N(C)C(=O)[C@H]1CCN(C(=O)OC(C)C)C1)C(=O)N1CCC[C@H](N1)C(=O)OCC(C)(C)C2 [Compound A117] | 6.00 to 7.00 | 6.00 to 7.00 | pEC50 [2, 4]: > 5.30
6 | CCn1c(-c2cccnc2[C@H](C)OC)c2c3cc(ccc31)-c1cc(O)cc(c1)C[C@H](NC(=O)[C@H](C(C)C)N(C)C(=O)C1CCN3CCOCC13)C(=O)N1CCC[C@H](N1)C(=O)OCC(C)(C)C2 (stereo partly shown) [Compound A123] | – | – | pEC50 [2, 4]: > 5.30; pIC50 ([1]; KRAS G12C FRET IC50): 7.00 to 8.00
7 | CCn1c(-c2cccnc2[C@H](C)OC)c2c3cc(ccc31)-c1csc(n1)C[C@H](NC(=O)[C@H](C(C)C)N(C)C(=O)N(C)C)C(=O)N1CCC[C@H](N1)C(=O)OCC(C)(C)C2 [Compound A136] | – | 5.00 to 6.00 | –
8 | CCn1c(-c2cccnc2[C@H](C)OC)c2c3cc(ccc31)-c1csc(n1)C[C@H](NC(=O)[C@H](C(C)C)N(C)C(=O)[C@@H]1OCC[C@@H]1C)C(=O)N1CCC[C@H](N1)C(=O)OCC(C)(C)C2 [Compound A143] | 7.00 to 8.00 | 6.00 to 7.00 | –
9 | CCn1c(-c2cccnc2[C@H](C)OC)c2c3cc(ccc31)-c1cc(O)cc(c1)C[C@H](NC(=O)[C@H](C(C)C)N(C)C(=O)[C@H]1C[C@H]1C)C(=O)N1CCC[C@H](N1)C(=O)OCC(C)(C)C2 [Compound A146] | 6.00 to 7.00 | 6.00 to 7.00 | –
10 | CCn1c(-c2cccnc2[C@H](C)OC)c2c3cc(ccc31)-c1nc(cs1)C[C@H](NC(=O)[C@H](C(C)C)N(C)C(C)=O)C(=O)N1CCC[C@H](N1)C(=O)OCC(C)(C)C2 [Compound A152] | 7.00 to 8.00 | 7.00 to 8.00 | pEC50 [2, 4]: > 5.30
11 | CCn1c(-c2cccnc2[C@H](C)OC)c2c3cc(ccc31)-c1cc(O)cc(c1)C[C@H](NC(=O)[C@H](C(C)C)N(C)C(=O)C1(N)CC1)C(=O)N1CCC[C@H](N1)C(=O)OCC(C)(C)C2 [Compound A168] | – | 6.00 to 7.00 | pEC50 ([2]; Homo sapiens, NCI-H358, 4 h): > 5.30; IC50 (NCI-H358 (K-Ras G12C); read-out: H358 Cell Viability assay data (K-Ras G12C, IC50, uM), 5-day treatment): 0.01 to 0.1 µM
12 | CCn1c(-c2cccnc2[C@H](C)OC)c2c3cc(ccc31)-c1cc(O)cc(c1)C[C@H](NC(=O)[C@H](C(C)C)N(C)C(=O)N1CC(N(C)C)C1)C(=O)N1CCC[C@H](N1)C(=O)OCC(C)(C)C2 [Compound A171] | 6.00 to 7.00 | 5.00 to 6.00 | pEC50 [2, 4]: > 5.30
13 | CCn1c(-c2cccnc2[C@H](C)OC)c2c3cc(ccc31)-c1cc(O)cc(c1)C[C@H](NC(=O)[C@@H](NC(C)=O)C(C)(C)OC)C(=O)N1CCC[C@H](N1)C(=O)OCC(C)(C)C2 [Compound A172] | 7.00 to 8.00 | 7.00 to 8.00 | pEC50 [2, 4]: > 5.30
14 | CCn1c(-c2cccnc2[C@H](C)OC)c2c3cc(ccc31)-c1cc(O)cc(c1)C[C@H](NC(=O)[C@H](C(C)C)N(C)C(=O)O[C@H]1CCOC1)C(=O)N1CCC[C@H](N1)C(=O)OCC(C)(C)C2 [Compound A209] | – | 7.00 to 8.00 and > 8.00 | –
15 | C=CC(=O)N1CC[C@]2(CCCN([C@H](C(=O)N[C@H]3Cc4cc(O)cc(c4)-c4ccc5c(c4)c(c(-c4ccccc4CCOC)n5CC)CC(C)(C)COC(=O)[C@@H]4CCCN(N4)C3=O)C(C)C)C2)C1 [Compound A217] | – | 6.00 to 7.00 and < 5.00 | pEC50 [2, 4]: > 5.30
16 | CCn1c(-c2cccnc2[C@H](C)OC)c2c3cc(ccc31)-c1cc(O)cc(c1)C[C@H](NC(=O)[C@H](C(C)C)N(C)C(=O)C1NCCC13CC3)C(=O)N1CCC[C@H](N1)C(=O)OCC(C)(C)C2 (stereo partly shown) [Compound A228] | < 5.00 | 5.00 to 6.00 | –
17 | CCn1c(-c2cccnc2[C@H](C)OC)c2c3cc(ccc31)-c1csc(n1)C[C@H](NC(=O)[C@H](C(C)C)N(C)C(=O)[C@H]1CCCO1)C(=O)N1CCC[C@H](N1)C(=O)OCC(C)(C)C2 [Compound A238] | 7.00 to 8.00 | 7.00 to 8.00 | –
18 | CCn1c(-c2cccnc2[C@H](C)OC)c2c3cc(ccc31)-c1csc(n1)C[C@H](NC(=O)[C@H](C(C)C)N(C)C(=O)N1CCC13CN(C)C3)C(=O)N1CCC[C@H](N1)C(=O)OCC(C)(C)C2 [Compound A274] | 6.00 to 7.00 | 5.00 to 6.00 | –
19 | CCn1c(-c2cccnc2[C@H](C)OC)c2c3cc(ccc31)-c1csc(n1)C[C@H](NC(=O)[C@H](C(C)C)N(C)C(=O)N1C[C@H]3CN(C)C[C@H]3C1)C(=O)N1CCC[C@H](N1)C(=O)OCC(C)(C)C2 [Compound A313] | < 5.00 | 5.00 to 6.00 | –
20 | CCn1c(-c2cccnc2[C@H](C)OC)c2c3cc(ccc31)-c1cc(O)cc(c1)C[C@H](NC(=O)[C@H](C(C)C)N(C)C(=O)[C@H]1CCN(C(=O)[C@H]3CCCN3)C1)C(=O)N1CCC[C@H](N1)C(=O)OCC(C)(C)C2 [Compound A378] | – | 6.00 to 7.00 | pIC50 [3]: 5.00 to 6.00
21 | CCn1c(-c2cccnc2[C@H](C)OC)c2c3cc(ccc31)-c1cc(C#N)cc(c1)C[C@H](NC(=O)[C@H](C(C)C)N(C)C(C)=O)C(=O)N1CCC[C@H](N1)C(=O)OCC(C)(C)C2 [Compound A430] | 7.00 to 8.00 | 6.00 to 7.00 | –
22 | CCn1c(-c2cccnc2[C@H](C)OC)c2c3cc(ccc31)C1=C[C@@H](O)CN(C1)C[C@H](NC(=O)[C@H]1[C@H](C)[C@@H]1C)C(=O)N1CCC[C@H](N1)C(=O)OCC(C)(C)C2 [Compound A441, (1R,2R,3S)—N-((2^3S,6^3S,4S)-1^1-ethyl-2^3-hydroxy-1^2-(2-((S)-1-methoxyethyl)pyridin-3-yl)-10,10-dimethyl-5,7-dioxo-2^1,2^2,2^3,2^6,6^1,6^2,6^3,6^4,6^5,6^6-decahydro-1^1H-8-oxa-1 (5,3)-indola-6 (1,3)-pyridazina-2 (5,1)-pyridinacycloundecaphane-4-yl)-2,3-dimethylcyclopropane-1-carboxamide] | – | 5.00 to 6.00 | pIC50 (KRAS G12D): 6.00 to 7.00; pEC50 ([2]; NCI-H358 cells, 4 hours): > 5.30
23 | CCn1c(-c2cccnc2[C@H](C)OC)c2c3cc(ccc31)-c1csc(n1)C[C@H](NC(=O)[C@H](C(C)C)N(C)C(=O)N1CC3(CC(N(C)CCO)C3)C1)C(=O)N1CCC[C@H](N1)C(=O)OCC(C)(C)C2 [Compound A467] | 7.00 to 8.00 | 5.00 to 6.00 | –
24 | CCn1c(-c2cc(N3CCN(C)CC3)cnc2[C@H](C)OC)c2c3cc(ccc31)-c1cccc(c1)C[C@H](NC(=O)[C@H](C(C)C)N(C)C(=O)[C@@H]1OCC[C@@H]1c1ccccc1)C(=O)N1CCC[C@H](N1)C(=O)OCC(C)(C)C2 [Compound A562] | 6.00 to 7.00 | 6.00 to 7.00 | –
25 | CCn1c(-c2cccnc2[C@H](C)OC)c2c3cc(ccc31)-c1csc(n1)C[C@H](NC(=O)[C@H](C(C)C)N(C)C(=O)N1CC(C3CN(C)C3)C1)C(=O)N1CCC[C@H](N1)C(=O)OCC(C)(C)C2 [Compound A608] | 7.00 to 8.00 | 6.00 to 7.00 | –
